Source: patent US11091497B2, “Pyrano[3,4-b]pyrazine kappa opioid receptor ligands for treating addiction, pruritus, pain, and inflammation” (The Rockefeller University, priority 2017, dated 2021)
Like-named read-outs stand apart in the source and are kept apart here.

Key:
[1] = target: T1, kappa opioid receptor (PathHunter U2OS hOPRK1 membranes) (Homo sapiens, UniProt P41145); experiment: Tritiated U69,593 binding for KOP-R membranes
T1 construct: host or cells: U2OS (PathHunter U2OS hOPRK1 β-arrestin cell line)
T1 sequence (P41145 whole entry): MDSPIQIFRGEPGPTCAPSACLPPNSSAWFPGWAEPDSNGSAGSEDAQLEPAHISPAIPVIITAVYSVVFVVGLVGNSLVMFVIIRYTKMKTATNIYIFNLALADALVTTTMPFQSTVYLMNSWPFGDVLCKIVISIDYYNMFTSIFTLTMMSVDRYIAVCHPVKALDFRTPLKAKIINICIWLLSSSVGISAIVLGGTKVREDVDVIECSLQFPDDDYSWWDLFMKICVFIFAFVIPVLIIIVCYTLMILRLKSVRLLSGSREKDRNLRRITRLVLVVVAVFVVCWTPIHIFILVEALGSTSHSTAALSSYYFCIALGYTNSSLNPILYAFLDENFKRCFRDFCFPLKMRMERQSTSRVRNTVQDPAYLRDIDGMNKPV
Protocol: Tritiated U69,593 binding for KOP-R membranes; tritiated DAMGO binding for MOP-R membranes; and tritiated DPDPE binding for DOP-R membranes:
(§1) Membranes from cells stably expressing kappa, mu or delta opioid receptor constructs (PathHunter U2OS hOPRK1, CHO-K1 rOPRM1 and CHO-K1 OPRD1 β-arrestin cell line, DiscoverX, Fremont, Calif., USA) were used. Cells were scraped from tissue culture plates, homogenized with a tissue tearor homogenizer in membrane buffer (10 mM Tris, 100 mM NaCl, and 1 mM EDTA; pH 7.4), and centrifuged at 20,000 g for 30 minutes at 4° C. and frozen at −80° C. until use. Prior to use, the pellets were resuspended in binding buffer (50 mm Tris, 100 mm NaCl, pH 7.4), homogenized with a dounce homogenizer and […] incubated with 1.0 nM of the appropriate tritiated ligand ([^3H]U69,593, [^3H]DAMGO or [^3H]DPDPE for kappa, mu or delta binding, respectively) and the appropriate concentration of compound for 60 minutes at 30° C. Membranes with bound tritiated ligand were collected on Whatman GF/B filter paper (Brandel, Gaithersburg, Md., USA) utilizing a Brandel harvester. Bound tritiated ligand was quantified using a TriCarb-2900TR scintillation counter (Packard, Downers Grove, Ill., USA) following addition of 4 ml ReadySafe scintillation fluid (Beckman Coulter, Indianapolis, Ind., USA). Compiled data for each compound was normalized to the maximal binding in the absence of compound, with non-specific binding subtracted. Curve fitting was done in Microcal Origin 17.0 software using logistic sigmoidal fit, to determine IC50. GTPgammaS Membranes from U2OS cells stably expressing human kappa opioid receptors were used. Cells were scraped from tissue culture plates, homogenized with a tissue tearor homogenizer in membrane buffer (10 mM Tris, 100 mM NaCl, and 1 mM EDTA; pH 7.4), and centrifuged at 20,000 g for 30 minutes at 4° C. and frozen at −80° C. until use. Prior to use, the pellets were resuspended in assay buffer (50 mm Tris, 100 mm NaCl, 5 mM MgCl2, and 1 mM EDTA; pH 7.4) and homogenized with a dounce homogenizer and 50 μg incubated with 0.1 nM [35 S]GTPγS, 10 nM GDP, and the appropriate concentration of agonist for 20 minutes at 30° C. To test inhibition, all samples were incubated with 100 nM U69,593 as well as the appropriate concentration of compound. Membranes with bound [35 S]GTPγS were collected on Whatman GF/B filter paper (Brandel, Gaithersburg, Md., USA) utilizing a Brandel harvester. Bound [35 S]GTPγS was quantified using a TriCarb-2900TR scintillation counter (Packard, Downers Grove, Ill., USA) following addition of 4 mL ReadySafe scintillation fluid (Beckman Coulter, Indianapolis, Ind., USA). […] NA indicates not applicable. For each compound, curve fitting was done in Microcal Origin 17.0 software using logistic sigmoidal fit, to determine EC50 and maximal percent stimulation, which in turn was normalized to the maximal percent stimulation of the test full agonist compound U69,593 to determine % efficacy. β2-Arrestin Experiments were conducted using the PathHunter Detection Kit obtained from DiscoverX. Cells stably expressing kappa, mu or delta opioid receptor constructs (PathHunter U2OS hOPRK1, CHO-K1 rOPRM1 and CHO-K1 OPRD1 β-arrestin cell line, DiscoverX, Fremont, Calif., USA) were plated in 96- or 384-well plates. Cells were stimulated with the compounds for 90 minutes at 37° C. To test inhibition, all samples were incubated with 100 nM U69,593 as well as the appropriate concentration of compound. Cells were then incubated for 60 minutes in the presence of galoctosidase substrate, yielding chemiluminescent product. Chemiluminescence was measured using a Synergy Neo microplate reader (BioTek, Winooski, Vt., USA). Antagonism assays were done in the same manner, in the presence of 300 nM U69,593, 1 μM DAMGO or 1 μM DPDPE for KOP-R, MOP-R or DOP-R assays, respectively. […] NA indicates not applicable. […]

[2] = target: T2, human kappa opioid receptors (Homo sapiens, UniProt P41145); experiment: [35S]GTPγS stimulation, membranes from U2OS cells; format: biochemical; conditions: for Emax: read-out: GTPγS stimulation % efficacy
T2 construct: expressed in transfected cells; host or cells: U2OS
T2 sequence (P41145 whole entry): as above
Protocol: Membranes from cells stably expressing kappa, mu or delta opioid receptor constructs (PathHunter U2OS hOPRK1, CHO-K1 rOPRM1 and CHO-K1 OPRD1 β-arrestin cell line, DiscoverX, Fremont, Calif., USA) were used. Cells were scraped from tissue culture plates, homogenized with a tissue tearor homogenizer in membrane buffer (10 mM Tris, 100 mM NaCl, and 1 mM EDTA; pH 7.4), and centrifuged at 20,000 g for 30 minutes at 4° C. and frozen at −80° C. until use. Prior to use, the pellets were resuspended in binding buffer (50 mm Tris, 100 mm NaCl, pH 7.4), homogenized with a dounce homogenizer and […] incubated with 1.0 nM of the appropriate tritiated ligand ([^3H]U69,593, [^3H]DAMGO or [^3H]DPDPE for kappa, mu or delta binding, respectively) and the appropriate concentration of compound for 60 minutes at 30° C. Membranes with bound tritiated ligand were collected on Whatman GF/B filter paper (Brandel, Gaithersburg, Md., USA) utilizing a Brandel harvester. Bound tritiated ligand was quantified using a TriCarb-2900TR scintillation counter (Packard, Downers Grove, Ill., USA) following addition of 4 ml ReadySafe scintillation fluid (Beckman Coulter, Indianapolis, Ind., USA). Compiled data for each compound was normalized to the maximal binding in the absence of compound, with non-specific binding subtracted. Curve fitting was done in Microcal Origin 17.0 software using logistic sigmoidal fit, to determine IC50. GTPgammaS Membranes from U2OS cells stably expressing human kappa opioid receptors were used. Cells were scraped from tissue culture plates, homogenized with a tissue tearor homogenizer in membrane buffer (10 mM Tris, 100 mM NaCl, and 1 mM EDTA; pH 7.4), and centrifuged at 20,000 g for 30 minutes at 4° C. and frozen at −80° C. until use. Prior to use, the pellets were resuspended in assay buffer (50 mm Tris, 100 mm NaCl, 5 mM MgCl2, and 1 mM EDTA; pH 7.4) and homogenized with a dounce homogenizer and 50 μg incubated with 0.1 nM [35 S]GTPγS, 10 nM GDP, and the appropriate concentration of agonist for 20 minutes at 30° C. To test inhibition, all samples were incubated with 100 nM U69,593 as well as the appropriate concentration of compound. Membranes with bound [35 S]GTPγS were collected on Whatman GF/B filter paper (Brandel, Gaithersburg, Md., USA) utilizing a Brandel harvester. Bound [35 S]GTPγS was quantified using a TriCarb-2900TR scintillation counter (Packard, Downers Grove, Ill., USA) following addition of 4 mL ReadySafe scintillation fluid (Beckman Coulter, Indianapolis, Ind., USA). […] For each compound, curve fitting was done in Microcal Origin 17.0 software using logistic sigmoidal fit, to determine EC50 and maximal percent stimulation, which in turn was normalized to the maximal percent stimulation of the test full agonist compound U69,593 to determine % efficacy. β2-Arrestin Experiments were conducted using the PathHunter Detection Kit obtained from DiscoverX. Cells stably expressing kappa, mu or delta opioid receptor constructs (PathHunter U2OS hOPRK1, CHO-K1 rOPRM1 and CHO-K1 OPRD1 β-arrestin cell line, DiscoverX, Fremont, Calif., USA) were plated in 96- or 384-well plates. Cells were stimulated with the compounds for 90 minutes at 37° C. To test inhibition, all samples were incubated with 100 nM U69,593 as well as the appropriate concentration of compound. Cells were then incubated for 60 minutes in the presence of galoctosidase substrate, yielding chemiluminescent product. Chemiluminescence was measured using a Synergy Neo microplate reader (BioTek, Winooski, Vt., USA). Antagonism assays were done in the same manner, in the presence of 300 nM U69,593, 1 μM DAMGO or 1 μM DPDPE for KOP-R, MOP-R or DOP-R assays, respectively.

[3] = target: T3, kappa opioid receptor (PathHunter U2OS hOPRK1 β-arrestin cell line) (Homo sapiens, UniProt P41145); experiment: β-arrestin coupling (PathHunter Detection Kit); format: cell-based; conditions: for β-arrestin coupling % efficacy: maximal, normalized to U69,593; for β-arrestin coupling % efficacy / β-arrestin coupling EC50: No stim = no stimulation at highest dose tested, 10,000 nM; for Emax at 10 µM: U2OS; for β-arrestin coupling EC50: 90 minutes at 37° C.
T3 construct: host or cells: U2OS (PathHunter U2OS hOPRK1 β-arrestin cell line)
T3 sequence (P41145 whole entry): as above
Protocol: as §1

[4] = 1.0 nM [3H]U69,593, 60 minutes at 30° C., read-out: Binding IC50
[5] = read-out: β-arrestin coupling % efficacy
[6] = read-out: β-arrestin coupling % efficacy at 10 μM

| SMILES | IC50 [1, 4] [µM] | EC50 [2] [µM] | Emax [2] [%] | β-arrestin coupling % efficacy [3] | EC50 [3] [µM] | Emax at 10 µM [3, 5] [%] | β-arrestin coupling EC50 [3] | IC50 [1] [µM] | Emax at 10 µM [3, 6] [%] |
| --- | --- | --- | --- | --- | --- | --- | --- | --- | --- |
| O=C(Cc1cccc(Cl)c1)N1CCN[C@@H]2COC[C@H](N3CCCC3)[C@H]21 (racemic) [Example 5A24] | 0.251 | 0.213 | 64 | No stim | – | – | – | – | – |
| O=C(Cc1ccc(F)c(Cl)c1)N1CCN[C@@H]2COC[C@H](N3CCCC3)[C@H]21 (racemic) [Example 5A25] | 0.249 | 0.571 | 93 | – | 13.6 | 29 | – | – | – |
| O=C(Cc1cccc(C(F)(F)F)c1)N1CCN[C@@H]2COC[C@H](N3CCCC3)[C@H]21 (racemic) [Example 5A26] | 0.112 | 0.13 | 108 | – | 3.26 | 42 | – | – | – |
| O=C(Cc1cc(Cl)cc(Cl)c1)N1CCN[C@@H]2COC[C@H](N3CCCC3)[C@H]21 (racemic) [Example 5A32] | 0.41 | 0.464 | 66.5 | No stim | – | – | No stim | – | – |
| Cc1ccc(CC(=O)N2CCN[C@@H]3COC[C@H](N4CCCC4)[C@H]32)cc1C (racemic) [Example 5A40] | 0.719 | 1.7 | 111 | No stim | – | – | No stim | – | – |
| CS(=O)(=O)N1CCN(C(=O)Cc2ccc(Cl)c(Cl)c2)[C@H]2[C@H]1COC[C@@H]2N1CCCC1 (racemic) [Example 5A44] | – | 0.0067 | 88 | – | 6.2 | 55 | – | 0.019 | – |
| O=C(Cc1ccc(Cl)c(C(F)(F)F)c1)N1CCN[C@@H]2COC[C@H](N3CCCC3)[C@H]21 (racemic) [Example 5A46] | – | 0.0063 | 131 | – | – | – | – | 0.015 | 100 |
| Cc1ccc(CC(=O)N2CCN[C@@H]3COC[C@H](N4CCCC4)[C@H]32)cc1C(F)(F)F (racemic) [Example 5A47] | – | 0.009 | 84 | – | 4.9 | 78 | – | 0.031 | – |
| O=C(Cc1cccc(Cl)c1Cl)N1CCN[C@@H]2COC[C@H](N3CCCC3)[C@H]21 (racemic) [Example 5A48] | 1.04 | 21.8 | 181 | No stim | – | – | – | – | – |
| O=C(Cc1ccc(C(F)(F)F)cc1)N1CCN[C@@H]2COC[C@H](N3CCCC3)[C@H]21 (racemic) [Example 5A49] | 0.102 | 0.109 | 69 | – | 11 | 36 | – | – | – |
| CN(CC1CC1)[C@H]1COC[C@H]2NCCN(C(=O)Cc3ccc(Cl)c(Cl)c3)[C@@H]21 (racemic) [Example 5A50] | – | 0.093 | 79 | No stim | – | – | – | 0.297 | – |
| CN(C)[C@H]1COC[C@H]2NCCN(C(=O)Cc3ccc(Cl)c(Cl)c3)[C@@H]21 (racemic) [Example 5A51] | 0.12 | 0.108 | 71 | No stim | – | – | – | – | – |
| O=C(Cc1ccc(Cl)c(Cl)c1)N1CCN(S(=O)(=O)C2CC2)[C@@H]2COC[C@H](N3CCCC3)[C@H]21 (racemic) [Example 5A52] | – | 0.003 | 101 | – | 3.3 | 79 | – | 0.0051 | – |
| O=C(Cc1ccc(Cl)c(Cl)c1)N1CCN(Cc2ccccc2)[C@@H]2COC[C@H](N3CCCC3)[C@H]21 (racemic) [Example 5A53, 1-[4-benzyl-8-pyrrolidin-1-yl-3,4a,5,7,8,8a-hexahydro-2H-pyrano(3,4-b)pyrazin-1-yl]-2-(3,4-dichlorophenyl)ethanone] | – | 0.012 | 82 | – | – | – | – | 0.04 | 80 |
| O=C(Cc1ccc(Cl)c(Cl)c1)N1CCN(CC2CCCC2)[C@@H]2COC[C@H](N3CCCC3)[C@H]21 (racemic) [Example 5A54] | – | 0.031 | 73 | – | – | – | – | 0.073 | 20 |
